C[N+](C)(C)C[C@H](O)CC(=O)[O-]
solubility (mole fraction)
Details	in acetone	in ethanol	in isopropanol	in methanol
278.15 K	7.1e-05	0.0392	0.00146	0.0962
283.15 K	8.1e-05	0.0408	0.00181	0.0982
288.15 K	9.1e-05	0.0431	0.00223	0.104
293.15 K	0.000106	0.0452	0.00271	0.111
298.15 K	0.000117	0.0483	0.0034	0.119
303.15 K	0.000131	0.0517	0.00417	0.127
308.15 K	0.000143	0.0546	0.00527	0.136
313.15 K	0.000157	0.0576	0.0063	0.144
318.15 K	0.000175	0.0607	0.00778	0.154
323.15 K	0.000195	0.0648	0.00983	0.165
328.15 K	0.00022	0.0698	0.0118	0.178
333.15 K	–	0.0747	0.0144	0.189
338.15 K	–	0.0801	–	–
343.15 K	–	0.0855	–	–
348.15 K	–	0.0919	–	–
